Experimental data from paper PMC10997755, “Discovery of a small-molecule inhibitor that traps Polθ on DNA and synergizes with PARP inhibitors” (Nature Communications, 2024).
Converted amounts (≈) assume the structure as drawn. “And” between values parts separate entries of the source, which are not always exact repeats. Equal values may be shown once.

Tests used:
Polθ-pol [1] = molecular target: T1, Polθ-pol (Homo sapiens, UniProt O75417); assay: Cy5 fluorescence Polθ-pol DNA synthesis (strand displacement) IC50 assay; assay type: biochemical; conditions: Polθ-pol DNA synthesis, Cy5 fluorescence
T1 construct: purified recombinant human Polθ-pol (comprising amino acid residues 1792–2590); made in house
T1 sequence (O75417 1792-2590): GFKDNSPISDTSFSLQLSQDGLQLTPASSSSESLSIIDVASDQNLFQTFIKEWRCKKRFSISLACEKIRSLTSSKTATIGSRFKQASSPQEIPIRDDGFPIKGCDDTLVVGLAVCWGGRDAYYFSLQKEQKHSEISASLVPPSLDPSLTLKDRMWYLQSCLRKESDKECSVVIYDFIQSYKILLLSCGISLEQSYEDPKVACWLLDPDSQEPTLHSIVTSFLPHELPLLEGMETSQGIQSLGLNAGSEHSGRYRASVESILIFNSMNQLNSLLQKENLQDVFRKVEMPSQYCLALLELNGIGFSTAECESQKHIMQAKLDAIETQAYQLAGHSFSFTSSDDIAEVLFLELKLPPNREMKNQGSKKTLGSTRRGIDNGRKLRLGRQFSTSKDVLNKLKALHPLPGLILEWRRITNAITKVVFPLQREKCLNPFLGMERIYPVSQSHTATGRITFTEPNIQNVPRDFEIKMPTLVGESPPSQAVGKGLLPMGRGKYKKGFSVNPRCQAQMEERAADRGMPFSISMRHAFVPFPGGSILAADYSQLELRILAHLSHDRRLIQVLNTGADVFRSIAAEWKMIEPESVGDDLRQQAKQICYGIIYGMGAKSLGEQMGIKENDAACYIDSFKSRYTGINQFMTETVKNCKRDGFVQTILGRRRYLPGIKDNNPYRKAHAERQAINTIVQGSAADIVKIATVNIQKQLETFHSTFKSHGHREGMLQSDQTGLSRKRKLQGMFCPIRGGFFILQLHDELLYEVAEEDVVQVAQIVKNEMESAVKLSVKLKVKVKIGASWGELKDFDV
Method: The following Cy5 fluorescence assay was used to measure the ability of compounds to inhibit Polθ-pol in vitro. The fluorescent based assay was performed as follows: 60 nM of the pre-annealed primer-template containing a 5’ Cy5 fluorophore conjugated template strand (RP486-Cy5), a downstream complementary oligo conjugated with a 3’ Iowa BlackReg Dark quencher (RP343BHQRQ) and a primer strand (RP469D) was mixed with 50 uM 2'-deoxyribonucleoside triphosphates (dNTPs), 0.1 mg/mL Bovine serum albumin (BSA), 0.01% NP-40, 10% glycerol, 1 mM dithiothreitol (DTT), 10 mM MgCl2, 25 mM TrisHCl pH 7.8 in the presence of 2.5% DMSO with or without various concentrations (7-point dilution series) of Polθ-pol small-molecule inhibitors at 37 °C in a volume of 40 μL. The reactions were initiated by the addition of 5 nM of purified recombinant human Polθ-pol (comprising amino acid residues 1792–2590). The reactions were terminated by the addition of 20 mM EDTA after 18 min, and the Cy5 fluorescence intensity was measured using a CLARIOstar (BMG Labtech) plate reader. Reactions were performed in triplicate and the % inhibition at each concentration of the respective compound of Formula I was based on the mean.

[2] = Metabolic stability in liver microsomes; assay type: in vitro ADME; conditions: read-out: t1/2 liver microsomes
Solubility (2% DMSO/PBS) = assay type: physicochemical; conditions: aqueous buffer, kinetic from dmso stock
CAPAN-1 cells = assay: Clonogenic assay; assay type: cell-based; conditions: Capan-1 cells, vehicle
Method: (§1) Cells were plated on six or twelve or twenty-four well plates. In six well plate, 1000 cells/ well of BRCA2 -/-, BRCA1 -/-, PALB2 mut and 500 cells/ well of wildtype pair was plated; In twelve well plate, 600 cells/ well of BRCA2 -/-, BRCA1 -/-, PALB2 mut and 400 cells/ well of wildtype pair was plated; In twenty-four well plate, 500 cells/ well of BRCA2 -/-, BRCA1 -/-, PALB2 mut and 300 cells/ well of wildtype pair was plated. For MEFs, 300 cells per well in six-well plate were seeded. The medium was replaced every 2 days until the colonies were ready for staining in 10–12 days. For staining: Medium was removed from plates, and cells were rinsed with PBS. Fixation was carried out with—Water: Ethanol: Acetic acid (5:4:1) for 30 min followed by staining of colonies with 0.5% crystal violet in Water: Ethanol (3:2) for 2 h at room temperature. The plates were rinsed with water and left for drying overnight at room temperature. Colonies were then counted and IC50 was calculated using results from 3 or more independent experiments. Response curves are shown as mean colony formation +/- S.E.M.
(§2) Data are expressed as mean ± SEM from at least 3 independent experiments with triplicates for each condition unless stated otherwise. When conducting comparison between two groups, two-tailed unpaired t-test was used. Significance was assumed at p < 0.05. Asterisks in the figures indicate significance, ^∗p < 0.05, ^∗∗p < 0.01, ^∗∗∗p < 0.001. Combenefit® software version 2.021 was used to perform synergy analyses for drug combinations between RTx-161 and PARPi. GraphPad Prism 9 software was used to calculate IC50.

VC8 cells = assay: Clonogenic assay; assay type: cell-based, Chinese hamster; conditions: VC8 cells, vehicle
Method: as §1, §2

[3] = Colony survival, ola with or without RTX-161 (source data sheet Fig. 2 b; cell line not given); assay type: cell-based; conditions: vehicle
[4] = Colony survival, ola with or without RTX-161 (source data sheet Fig. 2 c; cell line not given); assay type: cell-based; conditions: ola 0.125 um, RTX-161 0 uM
Fl-Polθ = Fl-Polθ (UniProt O75417 1-2590); assay: EcoRI endonuclease protection with unlabeled DNA trap; RTx-152, ddCTP; i+1 complex fully resistant; Endonuclease protection buffer not in the material; crystals: 0.24 M Na citrate, 18% PEG 3350, 0.1 M Bis Tris propane pH 7.5, with 1 mM MgCl2, 1 mM ddGTP, 20 mM spermine in the complex mix; conditions: protein: recombinant; label: 32P (5'); 5' overhang 12 nt on template; 14 bp duplex
Polθ-pol [5] = molecular target: T2, Polθ-pol (human, UniProt O75417 1792-2590); assay: EcoRI endonuclease protection with unlabeled DNA trap; RTx-161, ddCTP; cleavage suppressed >10 min; Endonuclease protection buffer not in the material; crystals: 0.24 M Na citrate, 18% PEG 3350, 0.1 M Bis Tris propane pH 7.5, with 1 mM MgCl2, 1 mM ddGTP, 20 mM spermine in the complex mix; conditions: protein: recombinant; label: 32P (5'); 5' overhang 12 nt on template; 14 bp duplex
T2 sequence: T1 sequence (O75417 1792-2590)

[6] = molecular target: T3, PolθΔL (Polθ-pol, five loops replaced) (UniProt O75417 …, internal_change); assay: X-ray crystallography, 3.24 Å; RTx-152, ddGTP, Mg2+; closed conformation; Endonuclease protection buffer not in the material; crystals: 0.24 M Na citrate, 18% PEG 3350, 0.1 M Bis Tris propane pH 7.5, with 1 mM MgCl2, 1 mM ddGTP, 20 mM spermine in the complex mix; conditions: protein: recombinant; tags: 6xHis-SUMO removed with PreScission protease; 5' overhang 10 nt on template; 14 bp duplex
T3 sequence: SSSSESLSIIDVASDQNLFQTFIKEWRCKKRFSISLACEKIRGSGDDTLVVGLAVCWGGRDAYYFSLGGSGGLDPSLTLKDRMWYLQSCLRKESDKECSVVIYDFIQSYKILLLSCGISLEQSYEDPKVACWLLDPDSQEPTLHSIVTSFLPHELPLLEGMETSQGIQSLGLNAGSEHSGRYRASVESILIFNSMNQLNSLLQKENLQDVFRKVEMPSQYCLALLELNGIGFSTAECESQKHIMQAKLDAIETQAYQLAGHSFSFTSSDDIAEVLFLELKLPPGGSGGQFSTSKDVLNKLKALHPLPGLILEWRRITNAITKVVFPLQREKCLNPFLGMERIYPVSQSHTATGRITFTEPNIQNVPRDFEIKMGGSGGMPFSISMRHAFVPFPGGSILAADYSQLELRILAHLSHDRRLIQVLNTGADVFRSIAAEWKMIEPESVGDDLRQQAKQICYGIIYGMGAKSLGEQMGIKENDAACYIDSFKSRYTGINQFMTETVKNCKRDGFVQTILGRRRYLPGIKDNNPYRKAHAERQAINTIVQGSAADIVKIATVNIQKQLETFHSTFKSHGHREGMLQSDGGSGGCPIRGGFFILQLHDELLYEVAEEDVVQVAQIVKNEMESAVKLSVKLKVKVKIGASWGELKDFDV

Which results are given for `CN(C(=O)Oc1c(Cl)cc(Cl)c2cccnc12)c1ccccc1` [MC280003]?
IC50 (Polθ-pol [1]): 160 nM; half-life [2]: 1.5 min; solubility (Solubility (2% DMSO/PBS)): 21 µM (≈ 7.29 µg/mL)

Which results are given for `O=C(c1cc(Cc2n[nH]c(=O)c3ccccc23)ccc1F)N1CCN(C(=O)C2CC2)CC1` [ola]?
percent suvival (CAPAN-1 cells; ola 0.041 micro M, experiment block 1 (c0-c9)): 35.7622%; percent suvival (CAPAN-1 cells; ola 0.041 micro M, experiment block 2 (c10-c19)): 95.0051%; percent suvival (CAPAN-1 cells; ola 0.041 micro M, experiment block 3 (c20-c29)): 99.322%; percent suvival (CAPAN-1 cells; ola 0.123 micro M, experiment block 1 (c0-c9)): 20.5479%; percent suvival (CAPAN-1 cells; ola 0.123 micro M, experiment block 2 (c10-c19)): 86.264%; percent suvival (CAPAN-1 cells; ola 0.123 micro M, experiment block 3 (c20-c29)): 101.808%; percent suvival (CAPAN-1 cells; ola 0.37 micro M, experiment block 1 (c0-c9)): 15.0785%; percent suvival (CAPAN-1 cells; ola 0.37 micro M, experiment block 2 (c10-c19)): 58.3758%; percent suvival (CAPAN-1 cells; ola 0.37 micro M, experiment block 3 (c20-c29)): 61.807%; percent suvival (CAPAN-1 cells; ola 1.11 micro M, experiment block 1 (c0-c9)): 13.2577%; percent suvival (CAPAN-1 cells; ola 1.11 micro M, experiment block 2 (c10-c19)): 54.2134%; percent suvival (CAPAN-1 cells; ola 1.11 micro M, experiment block 3 (c20-c29)): 43.0496%; percent suvival (VC8 cells; ola 1.875 nano M): 82.1918% and 93.3333% and 61.7978%; percent suvival (VC8 cells; ola 30.00 nano M): 0%; percent suvival ([3]; ola 7.9 nano M): 85.0909% and 53.0303% and 63.9535%; percent suvival ([3]; ola 11.8 nano M): 61.0909%; percent suvival ([3]; ola 17.70 nano M): 49.2424% and 44.186% and 51.6364%; percent suvival ([3]; ola 26.60 nano M): 49.0909%; percent suvival ([3]; ola 40.00 nano M): 44.7273% and 28.7879% and 31.9767%; percent suvival ([3]; ola 60.00 nano M): 38.5455%; percent suvival ([3]; ola 90.00 nano M): 15.1515% and 16.8605% and 24.3636%; percent suvival [4]: 53.6122% and 69.9422% and 40.4494%

B1: LM3-EcoRI/LM4-EcoRI primer-template (dsDNA)
DNA 1: CGGCGAATTCGCAG
DNA 2: AGTAAGAGAACGCTGCGAATTCGCCG
Does B1 bind (Fl-Polθ)?
Result: binds

Does B1 bind (Polθ-pol [5])?
Result: binds

B2: crystallization primer-template (dsDNA)
DNA 1: CGACGTCGCAGCGC
DNA 2: GCGAGACTCCGCGCTGCGACGTCG
Does B2 bind [6]?
Result: binds
